Measurements as given in patent US10258694B2, “Skin external preparation and skin irritation-reducing method” (priority 2014, dated 2019).

Test system: three-dimensional skin model (EPI-212SIT)
Assay: Irritation test using three-dimensional skin model, MTT relative viability (Test Example 1-5)
Format: cell-based
Settings: 60 min exposure, 42 h post-incubation, 0.5 and 1.0 mass % pitavastatin calcium, powder
Protocol: The following <5-A> to <5-G> were used as test materials to perform exposure of the epidermis to the test materials and irritation evaluation in the following manner in accordance with OECD TG439 (In Vitro skin irritation test) using a kit for skin irritation test approved by OECD (EPI-212SIT manufactured by KURABO).
The epidermis in the kit was pre-incubated overnight, and then 30 μL of the test material was added to the stratum corneum side of the epidermis, and a nylon mesh was placed with tweezers to expose the stratum corneum to the test material. When the test material was solid (<5-E> described below), 25 μL of DPBS was added to the stratum corneum, and immediately after that, 25 mg of the solid material was added to the stratum corneum to expose the stratum corneum to the test material. After 60 minutes, the test material was completely removed by washing. Then, post-incubation was performed for 42 hours. In the process of the post-incubation, a culture medium was replaced once after a lapse of 24 hours. After the post-incubation, a reaction with an MTT solution was performed for 3 hours using an MTT assay kit (MTT-100-JP manufactured by KURABO), and a formazan dye produced by mitochondrial metabolism was extracted to measure the OD value. Based on the measurement result, relative viability was calculated by comparison with a negative control (<5-G> described below).

## O=C([O-])C[C@H](O)C[C@H](O)/C=C/c1c(C2CC2)nc2ccccc2c1-c1ccc(F)cc1.O=C([O-])C[C@H](O)C[C@H](O)/C=C/c1c(C2CC2)nc2ccccc2c1-c1ccc(F)cc1.[Ca+2] [pitavastatin calcium]
  relative viability (vs negative control DPBS): reduced in a manner dependent on the concentration
